Key:
[1] = tested on: CD34+ cells; test: Ex vivo expansion of CD34+ cell enriched cultures with RXR, RAR and RAR+RXR antagonists (CFU, CD34+ counts, FACS); format: cell-based, human; settings: 10^−7 M, with TPO, FLT3, IL-6 and IL-3; 3 and 5 weeks
Procedure: Cultures were prepared and maintained as described above.
, the percentage of cells bearing the CD34^+ marker (considered to be mostly committed progenitor cells), as well as the percentage of cells bearing the markers CD34^+/CD38^− and CD34^+Lin^− […]

[2] = tested on: CD34 cells; test: Transition metal chelators in CD34+ cell liquid cultures (cell number, CD34 cells, clonability); format: cell-based, human; settings: for Cells/ml (×10^4): FL, SCF, IL-6 50 ng/ml; for CFU expansion (fold): CFU day 7 / CFU day 0
Procedure: The interphase layer of mononuclear cells were collected, washed three times with Ca/Mg free phosphate buffered saline containing 1% bovine serum albumin (BSA). The cells were incubated for 30 min. at 4° C. with murine monoclonal anti CD34 antibody (0.5 μg/10^6 mononuclear cells) and thereafter isolated using the miniMACS apparatus (Miltenyi-Biotec, Bergisch, Gladbach, Germany) according to the manufacturer's protocol.
Culture procedures: For the expansion of progenitor cells, CD34^+ enriched fractions or unseparated mononuclear cells were seeded at about 1-3×10^4 cells/ml in either alpha minimal essential medium containing 10% preselected fetal calf serum (FCS) (both from GIBCO, Grand Island, N.Y.), or serum-free medium (Progenitor-34 medium, Life Technologies, Grand Island, N.Y.). The media were supplemented with a mixture of growth factors and transition metal chelators. The cultures were incubated at 37° C. in an atmosphere of 5% CO2 in air with extra humidity. Half of the medium was changed weekly with fresh medium containing all the supplements.
Cloning potential evaluations: The cloning potential of cells developed in the liquid culture was assayed, at different intervals, in semi-solid medium. The cells were washed and seeded in 35 mm dishes in methylcellulose containing alpha medium supplemented with recombinant growth factors (SCF, G-CSF, GM-CSF and EPO). Following 2 weeks incubation, the cultures were scored with an inverted microscope. Colonies were classified as blast, mixed, erythroid, myeloid, and megakaryocytic, according to their cellular composition.
Morphological assessment: In order to characterize the resulting culture populations, aliquots of cells were deposited on a glass slide (cytocentrifuge, Shandon, Runcorn, UK), fixed and stained in May-Grunwald Giemsa. Other aliquots were stained by benzidine for intracellular hemoglobin.
Immunofluorescence staining: At different intervals, cells from the liquid cultures were assayed for CD34 antigen. Aliquots were harvested, washed and incubated on ice with FITC-labeled anti CD45 monoclonal antibody and either PE-labeled anti CD34 (HPCA-2) monoclonal antibody or PE-labeled control mouse Ig. After incubation, red cells were lysed with lysing solution, while the remaining cells were washed and analyzed by flow cytometer.
Flow cytometry: Cells were analyzed and sorted using FACStar^plus flow cytometer (Becton-Dickinson, Immunofluorometry systems, Mountain View, Calif.). Cells were passed at a rate of 1,000 cells/second through a […] nozzle, using saline as the sheath fluid. […] The PMTs was set at the appropriate voltage. Logarithmic amplification was applied for measurements of fluorescence and linear amplification—for forward light scatter. At least 10^4 cells were analyzed.
Cord blood-derived CD34 cells were plated in liquid culture in the presence of: FL—50 ng/ml, SCF—50 ng/ml, IL-6—50 ng/ml, with or without IL-3—20 ng/ml, with or without TEPA—10 μM. On day 7, the percentage of CD34 cells and the total cell number were determined. Aliquots equivalent to 1×10^3 initiating cells were assayed on days 0 and 7 for colony forming cells (CFU) by cloning in semi-solid medium. CFU expansion represents the ratio of CFU present on day 7 to CFU present on day 0.
CD34^+ cells derived from human neonatal cord blood were purified by immunomagnetic method and then cultured in liquid medium supplemented with cytokines either with or without transition metal chelators. At weekly intervals, the cultures were demi-depopulated by removing half of the culture content (supernatant and cells) and replacing it with fresh medium, cytokines and the chelators. At the indicated weeks the cellular content of the cultures were quantified for total cells (by a manual microscopic/hemocytometric method), for CD34^+ cells (by immuno-flow cytometry) and for clonogenic cells (by cloning the cells in cytokine-supplemented semi-solid medium).

[3] = TEPA 10 μM, without IL-3, day 7

Which “activity on ex vivo expansion of stem/progenitor cells (CFU, CD34+, CD34+/38−, CD34+/Lin−)” value [1] does the source give for `CCc1ccc(C2=CC(C)(C)Sc3ccc(C#Cc4ccc(C(=O)O)cc4)cc32)cc1` [AGN 194310] here?
Its value is “moderate activity”.

Which “effect on differentiation of CD34+ cells” value [2] does the source give for `NCCNCCNCCNCCN` [TEPA, tetraethylenepentamine] here?
The value was “inhibit differentiation”.

What about the “Cells/ml (×10^4)” value ([2]; TEPA 10 μM, with IL-3 20 ng/ml, day 7) of the same compound?
The value was 11 ×10^4.

What about the “Cells/ml (×10^4)” value [2, 3] of the same compound?
The value was 2 ×10^4.

And the “CD34 cells (%)” value ([2]; TEPA 10 μM, with IL-3, day 7)?
Its value is 20%.

And the “Colonies (Per 1 × 10^3 initiating cells)” value ([2]; TEPA 10 μM, with IL-3, day 7)?
The value was 850.

What about the “CFU expansion (fold)” value ([2]; TEPA 10 μM, with IL-3) of the same compound?
The value was 17 fold.

And the “CD34 cells (%)” value [2, 3]?
The value was 11.5%.

And the “Colonies (Per 1 × 10^3 initiating cells)” value [2, 3]?
The value was 140.

What about the “CFU expansion (fold)” value ([2]; TEPA 10 μM, without IL-3) of the same compound?
Its value is 2.8 fold.

And the CFUc expansion ([2]; after 6 weeks)?
Its CFUc expansion is 120 fold.

What about the “CFUc content of cultures” value ([2]; after 6 weeks, started with 2.5×10^3 CFUc) of the same compound?
Its value is 300×10^3 CFUc.

And the “time long-term CD34 cultures could be maintained” value ([2]; early-acting cytokines, no stromal cells, TEPA 10 μM)?
Its value is greater than 6 weeks.

What about the “cell proliferation and CFUc expansion in long-term CD34 cultures” value ([2]; long term cultures with early cytokines) of the same compound?
The value was “more effective than the short-chain polyamines”.

What about the “concentration with optimal activity” value ([2]; polyamine chelating agents, long-term CD34 cultures (FIGS. 39a-b)) of the same compound?
The value was 40 µM.

What about the “concentration with optimal activity” value ([2]; transition metal chelating agents, long-term CD34 cultures (FIGS. 40a-b)) of the same compound?
The value was 10 µM.

Reference: patent US20050054103A1, “Expansion of renewable stem cell populations using modulators of PI 3-kinase” (priority 2003, published 2005)
